The record followed here is patent US20220267300A1 (NodThera Limited, priority 2019, published 2022).

Molecules are shown by their SMILES. A value given as a limit tells only on which side of the number the result lay.

For orientation: IC50 means the concentration that gives 50% inhibition.

For the experiment, the system named is IL-1β release upon NLRP3 activation in peripheral blood mononuclear cells (PBMC). The experiment is described as follows: PBMC IC50 determination assay (inhibition of IL-1β release). The format is cell-based. The following applies: Homo sapiens; IL-1β release from LPS-primed PBMC stimulated with ATP (5 mM) or nigericin (10 μM); ELISA or HTRF; corresponding sodium salts evaluated. The procedure: The compounds of the present disclosure were tested for their inhibitory activity against IL-1β release upon NLRP3 activation in peripheral blood mononuclear cells (PBMC).
Protocol A. PBMC were isolated from buffy coats by density gradient centrifugation on Histopaque-1077 (Sigma, cat no. 10771). Isolated cells were seeded into the wells of a 96-well plate and incubated for 3 h with lipopolysaccharide (LPS). Following medium exchange, the compounds of the present disclosure were added (a single compound per well) and the cells were incubated for 30 min. Next, the cells were stimulated either with ATP (5 mM) or nigericin (10 μM) for 1 h and the cell culture media from the wells were collected for further analysis.
The release of IL-1β into the media was determined by a quantitative detection of IL-1β in the media using an IL-1β enzyme-linked immunosorbent assay (ELISA) Ready-SET-Go!, eBioscience cat. No. 88-7261-88. Briefly, in a first step, high affinity binding plates (Corning, Costar 9018 or NUNC Maxisorp Cat No. 44-2404) were coated overnight at 4° C. with specific capture antibody included in the kit (anti-human IL-1β ref. 14-7018-68). Subsequently, plates were blocked with blocking buffer for 1 h at room temperature (rt) and after washing with a buffer (PBS with 0.05% Tween-20) incubated with protein standard and culture media. After 2 h of incubation at rt, plates were washed and incubated with biotinylated detection antibody included in the kit (anti-human IL-1β Biotin ref. 33-7110-68) for 1 h at rt. Plates were washed and incubated with HRP-streptavidin for 30 min at rt and washed again. The signal was developed after addition of 3,3′,5,5′-tetramethylbenzidine-peroxidase (TMB) until colour appeared and the reaction was stopped by 2 M H2SO4. A microplate spectrophotometer (BioTek) was used to detect signals with 450 nm. The detection range of IL-1β ELISA was 2-150 ng/ml.
Protocol B. PBMC were isolated from buffy coats by density gradient centrifugation on Histopaque-1077 (Sigma, cat no. 10771). Isolated cells were seeded into the wells (280,000 cells/well) of a 96-well plate and incubated for 3 h with lipopolysaccharide (LPS, 1 μg/ml diluted 1000× from a 1 mg/ml stock solution). The compounds of the present disclosure were added (a single compound per well) and the cells were incubated for 30 min. Next, the cells were stimulated with ATP (5 mM final concentration diluted 20× from a 100 mM stock solution) for 1 h and the cell culture media from the wells were collected for further analysis.
The release of IL-1β into the media was determined by quantitative detection of IL-1β in the media using HTRF®, CisBio cat. No. 62HIL1BPEH. Briefly, cell culture supernatant were dispensed directly into the assay plate containing antibodies labelled with the HTRF® donor and acceptor. A microplate spectrophotometer (BMG) was used to detect signals at 655 nm and 620 nm. The detection range of IL-1β HTRF® was 39-6500 pg/ml.
(In general: An ELISA detects its analyte on a solid surface through an enzyme-linked reagent.)
`CN1CCC[C@H]1CN(c1cnn(C)c1)S(=O)(=O)NC(=O)Cc1cc(Cl)cc(C(C)(C)C)c1` (stereo in doubt) [Example 56]: the IC50 was no less than 50 µM.

`CC(C)c1cc(F)cc(C(C)C)c1CC(=O)NS(=O)(=O)N(c1cnn(C)c1)C1CCCN(C)C1` (centres unmarked) [Example 1, 2-[4-Fluoro-2,6-bis(propan-2-yl)phenyl]-N-[(1-methyl-1H-pyrazol-4-yl)(1-methylpiperidin-3-yl)sulfamoyl]acetamide]: the IC50 lay within 10 to 50 µM.

Regarding `Cc1cc(CC(=O)NS(=O)(=O)N(c2cnn(C)c2)C2CCCN(C)C2)cc(C(F)(F)F)c1` (centres unmarked) [Example 2, N-[(1-Methyl-1H-pyrazol-4-yl)(1-methylpiperidin-3-yl)sulfamoyl]-2-[3-methyl-5-(trifluoromethyl)phenyl]acetamide], the IC50 lay in the range of 10 to 50 µM.

Regarding `CC(C)c1cc(CC(=O)NS(=O)(=O)N(c2cnn(C)c2)C2CCCN(C)C2)cc(C(C)C)c1` (centres unmarked) [Example 3], the IC50 fell in the range of 10 to 50 µM.

Regarding `CN1CCCC(N(c2cnn(C)c2)S(=O)(=O)NC(=O)Cc2cc(Cl)cc(C(F)(F)F)c2)C1` (centres unmarked) [Example 4, 2-[3-Chloro-5-(trifluoromethyl)phenyl]-N-[(1-methyl-1H-pyrazol-4-yl)(1-methylpiperidin-3-yl)sulfamoyl]acetamide], the IC50 fell in the range of 10 to 50 µM.

Turning to `CC(C)c1cc(CC(=O)NS(=O)(=O)N(C[C@@H]2CCCN2C)c2cnn(C)c2)cc(C(C)C)c1` [Example 5, 2-[3,5-Bis(propan-2-yl)phenyl]-N-[(1-methyl-1H-pyrazol-4-yl)({[(2S)-1-methylpyrrolidin-2-yl]methyl})sulfamoyl]acetamide], the IC50 was less than 1 µM.

Turning to `CN1CCCC(N(c2cnn(C)c2)S(=O)(=O)NC(=O)Cc2cc(C(F)(F)F)cc(C(F)(F)F)c2)C1` (centres unmarked) [Example 6, 2-[3,5-Bis(trifluoromethyl)phenyl]-N-[(1-methyl-1H-pyrazol-4-yl)(1-methylpiperidin-3-yl)sulfamoyl]acetamide], the IC50 is less than 1 µM.

For `Cc1noc(N(C2CCCN(C)C2)S(=O)(=O)NC(=O)Cc2cc(C(C)C)cc(C(C)C)c2)c1C` (centres unmarked) [Example 7, 2-[3,5-Bis(propan-2-yl)phenyl]-N-[(3,4-dimethyl-1,2-oxazol-5-yl)(1-methylpiperidin-3-yl)sulfamoyl]acetamide], the IC50 is less than 1 µM.

As to `CC(C)c1cc(Cl)cc(CC(=O)NS(=O)(=O)N(C[C@@H]2CCCN2C)c2cnn(C)c2)c1` [Example 8, 2-[3-Chloro-5-(propan-2-yl)phenyl]-N-[(1-methyl-1H-pyrazol-4-yl)({[(2S)-1-methylpyrrolidin-2-yl]methyl})sulfamoyl]acetamide], the IC50 was 1 to 3 µM.

In the case of `CC(C)c1cc(CC(=O)NS(=O)(=O)N(C[C@@H]2CCCN2C)c2cnn(C)c2)cc(C(C)C)c1F` [Example 9, 2-[4-Fluoro-3,5-bis(propan-2-yl)phenyl]-N-[(1-methyl-1H-pyrazol-4-yl)({[(2S)-1-methylpyrrolidin-2-yl]methyl})sulfamoyl]acetamide], the IC50 fell in the range of 10 to 50 µM.

For the compound `CC(C)c1cc(CC(=O)NS(=O)(=O)N(C[C@@H]2CCCN2C)c2cnn(C)c2)cc(C(F)(F)F)c1` [Example 10, N-[(1-Methyl-1H-pyrazol-4-yl)({[(2S)-1-methylpyrrolidin-2-yl]methyl})-sulfamoyl]-2-[3-(propan-2-yl)-5-(trifluoromethyl)phenyl]acetamide], the IC50 lay within 3 to 10 µM.

With `CN1CCC[C@H]1CN(c1cnn(C)c1)S(=O)(=O)NC(=O)Cc1c2c(cc3c1CCC3)CCC2` [Example 11, 2-(1,2,3,5,6,7-Hexahydro-s-indacen-4-yl)-N-[(1-methyl-1H-pyrazol-4-yl)({[(2S)-1-methylpyrrolidin-2-yl]methyl})sulfamoyl]acetamide], the IC50 was less than 1 µM.

As to `CC(C)c1ccc(Cl)c(C(C)C)c1CC(=O)NS(=O)(=O)N(C[C@@H]1CCCN1C)c1cnn(C)c1` [Example 12, 2-[3-Chloro-2,6-bis(propan-2-yl)phenyl]-N-[(1-methyl-1H-pyrazol-4-yl)({[(2S)-1-methylpyrrolidin-2-yl]methyl})sulfamoyl]acetamide], the half-maximal inhibitory concentration (IC50) was 3 to 10 µM.

As for `CN1CCCC(N(c2cnn(C)c2)S(N)(=O)=NC(=O)Cc2c3c(cc4c2CCC4)CCC3)C1` (centres unmarked) [Example 13, N-{Amino[(1-methyl-1H-pyrazol-4-yl)(1-methylpiperidin-3-yl)amino]oxo-lambda6-sulfanylidene}-2-(1,2,3,5,6,7-hexahydro-s-indacen-4-yl)acetamide], the IC50 lay within 3 to 10 µM.

Take `CC(C)c1cc(CC(=O)NS(=O)(=O)N(c2cnn(C)c2)C2CCCN(C)C2)c(C(C)C)s1` (centres unmarked) [Example 14, 2-[2,5-Bis(propan-2-yl)thiophen-3-yl]-N-[(1-methyl-1H-pyrazol-4-yl)(1-methylpiperidin-3-yl)sulfamoyl]acetamide]: the half-maximal inhibitory concentration (IC50) is less than 1 µM.

In the case of `CC(C)c1cc(CC(=O)N=S(N)(=O)N(c2cnn(C)c2)C2CCCN(C)C2)c(C(C)C)s1` (centres unmarked) [Example 15, N-{Amino[(1-methyl-1H-pyrazol-4-yl)(1-methylpiperidin-3-yl)amino]oxo-lambda6-sulfanylidene}-2-[2,5-bis(propan-2-yl)thiophen-3-yl]acetamide], the IC50 fell in the range of 10 to 50 µM.

On to `CCc1cc(CC(=O)NS(=O)(=O)N(c2cnn(C)c2)C2CCCN(C)C2)cc(C(F)(F)F)c1` (centres unmarked) [Example 16, 2-[3-Ethyl-5-(trifluoromethyl)phenyl]-N-[(1-methyl-1H-pyrazol-4-yl)(1-methylpiperidin-3-yl)sulfamoyl]acetamide], for which the IC50 fell in the range of 3 to 10 µM.

With `CN1CCCC(N(c2cnn(C)c2)S(=O)(=O)NC(=O)Cc2c3c(cc4c2CCC4)CCC3)C1` (centres unmarked) [Example 17, 2-(1,2,3,5,6,7-Hexahydro-s-indacen-4-yl)-N-[(1-methyl-1H-pyrazol-4-yl)(1-methylpiperidin-3-yl)sulfamoyl]acetamide], the IC50 was less than 1 µM.

Turning to `CN(C)CCN(c1cnn(C)c1)S(=O)(=O)NC(=O)Cc1c2c(cc3c1CCC3)CCC2` [Example 18, N-{[2-(Dimethylamino)ethyl](1-methyl-1H-pyrazol-4-yl)sulfamoyl}-2-(1,2,3,5,6,7-hexahydro-s-indacen-4-yl)acetamide], the IC50 is 1 to 3 µM.

As to `Cn1cc(N(C2CCCN(C(=O)OCc3ccccc3)C2)S(=O)(=O)NC(=O)Cc2c3c(cc4c2CCC4)CCC3)cn1` (centres unmarked) [Example 19, Benzyl 3-({[2-(1,2,3,5,6,7-hexahydro-s-indacen-4-yl)acetamido]sulfonyl}(1-methyl-1H-pyrazol-4-yl)amino)piperidine-1-carboxylate], the concentration for half-maximal inhibition (IC50) fell in the range of 3 to 10 µM.

As for `Cn1cc(N(C2CCCNC2)S(=O)(=O)NC(=O)Cc2c3c(cc4c2CCC4)CCC3)cn1` (centres unmarked) [Example 20, 2-(1,2,3,5,6,7-Hexahydro-s-indacen-4-yl)-N-[(1-methyl-1H-pyrazol-4-yl)(piperidin-3-yl)sulfamoyl]acetamide], the half-inhibitory concentration (IC50) was in the range of 1 to 3 µM.

For the compound `Cn1cc(N(CCNC(=O)OCc2ccccc2)S(=O)(=O)NC(=O)Cc2c3c(cc4c2CCC4)CCC3)cn1` [Example 21], the IC50 was 3 to 10 µM.

Regarding `Cn1cc(N(CCN)S(=O)(=O)NC(=O)Cc2c3c(cc4c2CCC4)CCC3)cn1` [Example 22, N-[(2-Aminoethyl)(1-methyl-1H-pyrazol-4-yl)sulfamoyl]-2-(1,2,3,5,6,7-hexahydro-s-indacen-4-yl)acetamide], the 50% inhibitory concentration (IC50) is 10 to 50 µM.

Consider `CC(=O)NCCN(c1cnn(C)c1)S(=O)(=O)NC(=O)Cc1c2c(cc3c1CCC3)CCC2` [Example 23, N-[(2-Acetamidoethyl)(1-methyl-1H-pyrazol-4-yl)sulfamoyl]-2-(1,2,3,5,6,7-hexahydro-s-indacen-4-yl)acetamide], for which the half-maximal inhibitory concentration (IC50) was 10 to 50 µM.

For `Cn1cc(N(CCNCC(F)F)S(=O)(=O)NC(=O)Cc2c3c(cc4c2CCC4)CCC3)cn1` [Example 24, N-({2-[(2,2-Difluoroethyl)amino]ethyl}(1-methyl-1H-pyrazol-4-yl)sulfamoyl)-2-(1,2,3,5,6,7-hexahydro-s-indacen-4-yl)acetamide], the IC50 is less than 1 µM.

With `CN(CCN(c1cnn(C)c1)S(=O)(=O)NC(=O)Cc1c2c(cc3c1CCC3)CCC2)C(=O)OCc1ccccc1` [Example 25, Benzyl N-[2-({[2-(1,2,3,5,6,7-hexahydro-s-indacen-4-yl)acetamido]sulfonyl}(1-methyl-1H-pyrazol-4-yl)amino)ethyl]-N-methylcarbamate], the IC50 is 3 to 10 µM.
